1 molecule from ChEMBL document CHEMBL4354805, “Discovery of MK-8719, a Potent O-GlcNAcase Inhibitor as a Potential Treatment for Tauopathies” (J Med Chem, 2019) can be followed below.

Where only a bound is given, the exact number is not on record here.

A short description of series [1]: Ratio of drug uptake in rat brain to plasma at 3 mg/kg, po measured after 24 hrs. In kind it is ADME, organism-based. Particulars: read-out: BPR; call rule not given here.
Series [2] can be described thus: Clearance in Beagle dog at 1 mg/kg, iv. It counts as ADME, organism-based, Canis lupus familiaris. As to conditions: in vivo.
Series [3] can be described thus: Ratio of drug level in monkey blood to plasma. In kind it is ADME, cell-free, Macaca mulatta. Particulars: rhesus monkey, whole blood.
Series [4] in a line: Half life in rhesus monkey at 1 mg/kg, iv. In kind it is ADME, organism-based, Macaca mulatta. Particulars: in vivo.
Series [5] can be described thus: Toxicity in rat assessed as change in physical signs at 1000 mg/kg, po administered for 7 days and measured on day 8. It counts as organism-based. As to conditions: in vivo, 168 h.
The nature of series [6]: Half life in Beagle dog at 1 mg/kg, iv. As to conditions: in vivo. In kind it is ADME, organism-based, Canis lupus familiaris.
A short description of series [7]: Ratio of drug level in human blood to plasma. In kind it is ADME, cell-free. As to conditions: whole blood.
In series [8] the target is T1, Cytochrome P450 2B6 (Homo sapiens, UniProt P20813).
T1 sequence (P20813 whole entry): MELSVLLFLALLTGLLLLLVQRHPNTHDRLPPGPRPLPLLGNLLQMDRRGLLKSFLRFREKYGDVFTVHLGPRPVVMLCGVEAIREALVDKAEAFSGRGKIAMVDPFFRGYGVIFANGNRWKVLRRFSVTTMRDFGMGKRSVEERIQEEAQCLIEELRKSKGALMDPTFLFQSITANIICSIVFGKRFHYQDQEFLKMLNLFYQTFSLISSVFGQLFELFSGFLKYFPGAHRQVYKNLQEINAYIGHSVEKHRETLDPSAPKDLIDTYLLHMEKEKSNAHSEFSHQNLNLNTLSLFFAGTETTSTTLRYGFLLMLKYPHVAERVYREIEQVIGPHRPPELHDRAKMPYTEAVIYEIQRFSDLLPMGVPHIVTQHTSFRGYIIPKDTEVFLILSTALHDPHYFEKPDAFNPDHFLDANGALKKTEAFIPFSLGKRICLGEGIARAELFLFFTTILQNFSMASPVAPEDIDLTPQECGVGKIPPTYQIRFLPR
The series can be described thus: Induction of CYP2B6 in human hepatocytes upto 20 uM. In kind it is ADME, cell-based.

Broadly, the clearance is the rate of elimination divided by the concentration. The term half-life denotes the time in which the quantity being followed falls by half.

Turning to `CCNC1=N[C@@H]2[C@@H](O)[C@H](O)[C@@H](C(F)F)O[C@@H]2S1`, the Kp at 24 h in series [1] is ≥ 20.5. For the same molecule, the clearance in series [2] was 11.7 mL/min/kg. The blood plasma ratio in series [3] and in series [7] was 0.9 to 1.1 in each case. The half-life in series [4] was 1.4 h; in series [6] it was 2.3 h. Further, the Activity entry is reported as “Non-Toxic” in series [5] and “Not Active” in series [8].
